# Read-outs that look alike come from different tables or passages of the source.
# What was measured:
# [1] = biological target: T1, recombinant α-synuclein (Homo sapiens, UniProt P37840); assay: In vitro recombinant α-synuclein aggregation, Western blot; assay type: biochemical; details: 100 μM, 37 °C, 3 or 5 days
# T1 construct: made in house; host or cells: Escherichia coli BL21
# Procedure: Figure 2 PCiv prevents α-synuclein aggregation in vitro and in cultured neurons with PFF treatment. (A) Representative Western blots showing the degree of recombinant α-synuclein (αSyn) aggregation in a test tube in the presence or absence of PCiv (100 μM) at the indicated incubation duration (phosphate-buffered saline [PBS], 37 °C for 3 or 5 days). Aggregation of α-synuclein was determined using α-synuclein antibody. (B) Quantification of the relative amount of α-synuclein aggregate in high molecular weight sizes in panel A (n = 3 per group). […] (D) Quantification of pS129-αSyn immunofluorescence signal intensities in MAP2-positive cortical neurons in each experimental group (n = 15 cells from three separate experiments). (E) Cell viability assessment in the indicated experimental groups was monitored by CCK-8 assay (n = 3 per group). The data are expressed as means ± SEMs. * p < 0.05, ** p < 0.01, *** p < 0.001, and **** p < 0.0001, ANOVA test followed by Tukey’s post hoc analysis. […]
# (A) Representative Western blots showing the degree of recombinant α-synuclein (αSyn) aggregation in a test tube in the presence or absence of t-Khellatone, PCiii, and PCiv (100 μM) at 0 and 5 days of incubation (phosphate-buffered saline [PBS], 37 °C for 5 days). Aggregation of α-synuclein was determined using α- synuclein antibody. […]
# [2] = Rat pharmacokinetics after intravenous and oral administration; assay type: in vivo; details: 10 mg/kg, rats
# Procedure: Figure 3 Pharmacokinetic analysis and tissue distribution of PCiv. (A) Pharmacokinetic analysis of blood PCiv levels at each indicated time point following intravenous or oral administration of PCiv (10 mg/kg) determined by ultra-performance liquid chromatography (n = 4 rats for oral and 5 rats for intravenous administration). (B) Quantification of PCiv levels in each indicated tissue (ng/g tissue weight) determined by ultra-performance liquid chromatography (n = 3 rats, tissues collected 15 min after intravenous PCiv administration (10 mg/kg). PCiv was dissolved in a vehicle (DMSO:PEG400:saline ratio of 5:70:25) for solubilization. The quantified data are expressed as means ± standard deviations.
# In vivo rat pharmacokinetic studies were performed for intravenous and oral administration of PCiv as previously reported. Sprague-Dawley rats (8 weeks old, 260–280 g) were purchased from Orient Bio Inc. (Seongnam, Korea). Rats were maintained with free access to food and water under a 12:12 h light/dark cycle for 1 week. For pharmacokinetic studies, under anesthetic conditions (20 mg/kg tiletamine/zolazepam [Zoletil; Vibrac Laboratories, Carros, France] administered intramuscularly), the femoral vein and artery were surgically cannulated using polyethylene tubing (PE50; Clay Adams, Parsippany, NJ, USA) in fasted rats. Then, PCiv was administered intravenously and orally at a dose of 10 mg/kg (n = 4–5). The drug was dissolved in a vehicle (DMSO:PEG400:saline at a ratio of 5:70:25). Blood samples (approximately 100 μL) were collected at predetermined time points (0, 1, 5 (intravenous administration only), 15, 30, 60, 120, 180, 240, 360, and 480 min) after drug administration. To prevent blood clots and fluid loss, the cannula to the femoral artery was flushed with 20 IU/mL heparinized saline, and the same volume of saline was pushed to the cannula for the femoral vein. The plasma fraction was immediately obtained after centrifugation at 14,000 rpm for 15 min at 4 °C and then stored at −20 °C prior to analysis using the ultra-high-performance liquid chromatography (UHPLC)-diode array detector (DAD) method. Similarly, a tissue distribution study was performed 15 min after the intravenous bolus injection (10 mg/kg), as previously described. Four major tissues, including tissues from the brain, heart, kidneys, and liver, were collected. Based on the wet weights of the tissue samples, a two-fold volume of PBS was added and homogenized. The tissue homogenates were stored at −20 °C before UHPLC-DAD analysis. The UHPLC-DAD system consisted of an Agilent Technologies 1290 Infinity II equipped with a DAD (G7117A), an autosampler (G71678B), a binary pump (G7104A), and a multicolumn thermostat (G7116B). The PCiv level was determined using a CapcellpakTM C18 5 μm column (250 × 1.5 mm, Shiseido Fine Chemical Co., Tokyo, Japan), as previously described. The mobile phase was composed of 0.1% phosphoric acid and acetonitrile and eluted in the gradient mode at a flow rate of 0.2 mL/min. A DAD detector was applied at 321 nm, with an injection volume of 10 μL. The calibration range was 20–10,000 ng/mL with good linearity (R = 0.99783 with 1/× weighting). The tissue concentration levels were calculated as the PCiv amount (ng) per gram of organ weight.
# [3] = Dissolution in dosing vehicle; assay type: physicochemical; details: DMSO:PEG400:saline ratio of 5:70:25
# Procedure: In vivo rat pharmacokinetic studies were performed for intravenous and oral administration of PCiv as previously reported. Sprague-Dawley rats (8 weeks old, 260–280 g) were purchased from Orient Bio Inc. (Seongnam, Korea). Rats were maintained with free access to food and water under a 12:12 h light/dark cycle for 1 week. For pharmacokinetic studies, under anesthetic conditions (20 mg/kg tiletamine/zolazepam [Zoletil; Vibrac Laboratories, Carros, France] administered intramuscularly), the femoral vein and artery were surgically cannulated using polyethylene tubing (PE50; Clay Adams, Parsippany, NJ, USA) in fasted rats. Then, PCiv was administered intravenously and orally at a dose of 10 mg/kg (n = 4–5). The drug was dissolved in a vehicle (DMSO:PEG400:saline at a ratio of 5:70:25). Blood samples (approximately 100 μL) were collected at predetermined time points (0, 1, 5 (intravenous administration only), 15, 30, 60, 120, 180, 240, 360, and 480 min) after drug administration. […] The PCiv level was determined using a CapcellpakTM C18 5 μm column (250 × 1.5 mm, Shiseido Fine Chemical Co., Tokyo, Japan), as previously described. […] The tissue concentration levels were calculated as the PCiv amount (ng) per gram of organ weight.
compound,measurement,setting,value
"C/C=C(\C)C(=O)O[C@H]1[C@H](OC(C)=O)c2c(ccc3ccc(=O)oc23)OC1(C)C (relative stereo) [PCiv, trans-4′-acetyl-3′-tigloylkhellactone]",aggregation of recombinant α-synuclein into high molecular weight species,[1],robustly blocked
same,half-life,"[2]; Sprague-Dawley, rat, plasma, iv, intravenous, read-out: mean half-life",1.43 h
same,half-life,"[2]; Sprague-Dawley, rat, plasma, po, oral administration, read-out: half-life",~1.62 h
same,bioavailability,"[2]; Sprague-Dawley, rat, plasma, po, oral, read-out: absolute bioavailability",9.96%
same,Vd,"[2]; Sprague-Dawley, rat, plasma, intravenous, read-out: mean steady-state volume of distribution",6.62 L/kg
same,clearance,"[2]; Sprague-Dawley, rat, plasma, intravenous, read-out: mean systemic total clearance",136 mL/min/kg
same,absolute bioavailability,[2]; oral,~10%
same,maximum concentration,[2]; oral,low
same,dissolution in vehicle solution,[3],well-dissolved
